Results: patent US20030013041A1, “Optical data carrier comprising a cationic aminoheterocyclic dye as light-absorbent compound in the information layer” (priority 2001, published 2003)

How the values were obtained:
Format in all cases: physicochemical
[1] = Absorption spectrum measured in solution; conditions: for λmax (methanol): in methanol; for λmax (methylene chloride): in methylene chloride; for λ1/2-λ1/10 (long wavelength flank): on the long wavelength flank; for λ1/2-λ1/10 (short wavelength flank): on the short wavelength flank
Excerpt: In the case of a write-once optical data carrier according to the invention which is written on and read by means of the light of a blue laser, preference is also given to cationic aminoheterocyclic dyes whose absorption maximum λmax2 is in the range from 420 to 550 nm, where the wavelength λ½ at which the absorbance in the short wavelength flank of the absorption maximum at the wavelength λmax2 is half of the absorbance value at λmax2 and the wavelength λ 1/10 at which the absorbance in the short wavelength flank of the absorption maximum at the wavelength λmax2 is one tenth of the absorbance value at λmax2 are preferably not more than 50 nm apart. Such a cationic aminoheterocyclic dye preferably has no shorter-wavelength maximum λmax1 down to a wavelength of 350 nm, particularly preferably down to 320 nm, very particularly preferably down to 290 nm.
In the case of a write-once optical data carrier according to the invention which is written on and read by means of the light of a red laser, preference is given to cationic aminoheterocyclic dyes whose absorption maximum λmax2 is in the range from 500 to 650 nm, where the wavelength λ½ at which the absorbance in the long wavelength flank of the absorption maximum at the wavelength λmax2 is half of the absorbance value at λmax2 and the wavelength λ 1/10 at which the absorbance in the long wavelength flank of the absorption maximum at the wavelength λmax2 is one tenth of the absorbance value at λmax2 are preferably not more than 50 nm apart. Such a cationic aminoheterocyclic dye preferably has no longer-wavelength maximum λmax3 up to a wavelength of 750 nm, particularly preferably up to 800 nm, very particularly preferably up to 850 nm.
The absorption spectra are measured, for example, in solution.
Suitable cationic aminoheterocyclic dyes having the required spectral properties are, in particular, those in which the dipole moment change Δμ=|μg−μag|, i.e. the positive difference between the dipole moments in the ground state and in the first excited state, is very small, preferably <5 D, particularly preferably <2 D. A method of determining such a dipole moment change Ap is described, for example, in F. Wuirthner et al., Angew. Chem. 1997, 109, 2933, and in the literature cited therein. A low solvent-induced wavelength shift (methanol/methylene chloride) is likewise a suitable selection criterion. Preference is given to cationic aminoheterocyclic dyes whose solvent-induced wavelength shift Δλ=|λmethylene chloride−λmethanol|, i.e. the positive difference between the absorption wavelengths in the solvents methylene chloride and methanol, is <25 nm, particularly preferably <15 nm, very particularly preferably <5 nm.

[2] = Solubility in TFP
[3] = Film formation
Excerpt: Apart from the abovementioned optical properties, the writeable information layer comprising light-absorbent organic substances has to have a substantially amorphous morphology to keep the noise signal during writing or reading as small as possible. For this reason, it is particularly preferred that crystallization of the light-absorbent substances be prevented in the application of the substances by spin coating from a solution, by vapour deposition and/or sublimation during subsequent covering with metallic or dielectric layers under reduced pressure.

| SMILES | λmax (methanol) [1] [nm] | λmax (methylene chloride) [1] [nm] | λ1/2-λ1/10 (long wavelength flank) [1] [nm] | λ1/2-λ1/10 (short wavelength flank) [1] [nm] | ε ([1]; solvent not stated, printed after λmax in methanol and methylene chloride) | Solubility [2] [%] | ε ([1]; at λmax in methanol) | Film appearance [3] | ε ([1]; at λmax in methylene chloride) |
| --- | --- | --- | --- | --- | --- | --- | --- | --- | --- |
| C(=C1/SC(=[N+]2CCOCC2)N=C1c1ccccc1)/c1sc(N2CCOCC2)nc1-c1ccccc1 [Example 1] | 581 | 587 | 14.5 | 42 | 102 800 l/mol cm | > 2 | – | – | – |
| CN(C)c1ccc(/C=C/C2=[N+](C)c3ccccc3C2(C)C)o1 [Example 2] | 551 | – | 30 | 41 | – | > 2 | 87 670 l/mol cm | Glass-like film | – |
| CCCCN(CCCC)c1ccc(/C=C/C2=[N+](C)c3ccccc3C2(C)C)s1 [Example 3] | 528 | 543 | 14 | 34 | – | > 2 | 68 555 l/mol cm | Glass-like film | 98 554 l/mol cm |
| CN(C)c1ccc(/C=C2\SC(=[N+]3CCOCC3)N=C2c2ccccc2)cc1 [Example 4] | – | 601 | 19 | 42 | – | > 2 | – | – | 104 970 l/mol cm |
| CC1(C)C2=NC(=[N+]3CCCC3)SC2=Cc2sc(N3CCCC3)nc21 [Example 7] | – | 616 | 27 | 50 | – | – | – | – | 37153 L/mol/cm |
| CN(c1ccccc1)c1nc2c(s1)C=C1S/C(=[N+](\C)c3ccccc3)N=C1C2(C)C [Example 8] | – | 623 | – | – | – | – | – | – | 43650 L/mol/cm |
